Results on 21 compounds are retold here after patent US9394297B2, “Amides as pim inhibitors” (AMGEN INC., priority 2012, dated 2016).

Like-named read-outs stand apart in the source and are kept apart here.

For orientation: IC50 means the concentration that gives 50% inhibition.

Experiment [1] concerns the target Pim-2 (Homo sapiens (Human), UniProt Q9P1W9). Kind of experiment: Pim-Mn enzyme assay (HTRF, 384-well), Pim-2. It is filed as biochemical. The conditions noted are these: read-out: Pim-2-Mn IC50 IP. Background: In TR-FRET formats the signal depends on donor and acceptor labels being close together.
Experiment [2] deals with Pim-1 (Homo sapiens (Human), UniProt P11309). In words: Pim-Mn enzyme assay (HTRF, 384-well), Pim-1. It is filed as biochemical. Particulars: Pim-1 enzyme 5 pM, ATP 1.5 μM, BAD (S112) 0.5 μM, HTRF, 22-point curve; read-out: Pim-1-Mn IC50 IP.
The mark [3] stands for this setting: Pim-2 enzyme 0.5 pM, ATP 1.5 μM, BAD (S112) 0.5 μM, HTRF, 22-point curve.

Chain of Pim-1 (P11309 whole entry): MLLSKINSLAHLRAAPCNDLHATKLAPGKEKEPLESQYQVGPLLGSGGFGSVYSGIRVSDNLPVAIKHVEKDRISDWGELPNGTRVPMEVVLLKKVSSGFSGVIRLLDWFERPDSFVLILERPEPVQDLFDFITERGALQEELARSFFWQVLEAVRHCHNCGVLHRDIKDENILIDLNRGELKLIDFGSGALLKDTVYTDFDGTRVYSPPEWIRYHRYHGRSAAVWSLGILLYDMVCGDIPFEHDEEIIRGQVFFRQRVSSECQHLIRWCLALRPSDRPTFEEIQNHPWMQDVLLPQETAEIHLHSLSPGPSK
Chain of Pim-2 (Q9P1W9 whole entry): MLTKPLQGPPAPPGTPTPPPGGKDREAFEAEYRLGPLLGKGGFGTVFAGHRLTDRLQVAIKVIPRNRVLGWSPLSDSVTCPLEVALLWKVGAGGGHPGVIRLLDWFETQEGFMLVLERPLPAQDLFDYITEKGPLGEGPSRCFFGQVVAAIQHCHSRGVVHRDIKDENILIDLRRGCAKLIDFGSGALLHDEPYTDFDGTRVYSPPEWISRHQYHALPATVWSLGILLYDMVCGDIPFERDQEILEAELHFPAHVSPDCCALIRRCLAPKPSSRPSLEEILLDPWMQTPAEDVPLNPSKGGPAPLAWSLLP

For the compound `Cc1nc2cccc(-c3cc4c([nH]3)C(C)CNC4=O)c2nc1NC1CC1` (single isomer, unassigned) [Example 160, 2-(3-(cyclopropylamino)-2-methylquinoxalin-5-yl)-7-methyl-6,7-dihydro-1H-pyrrolo[3,2-c]pyridin-4(5H)-one], the IC50 in experiment [1] (setting [3]) was 0.5 nM; in experiment [2] it was 1 nM.
For the compound `Cc1nc2cccc(-c3cc4c([nH]3)C(C)CNC4=O)c2nc1NC1CC1` (single isomer, unassigned) [Example 161, 2-(3-(cyclopropylamino)-2-methylquinoxalin-5-yl)-7-methyl-6,7-dihydro-1H-pyrrolo[3,2-c]pyridin-4(5H)-one], the IC50 in experiment [1] (setting [3]) turned out to be 0.7 nM; in experiment [2], 0.8 nM.
In the case of `Cc1nc2cccc(-c3cc4c([nH]3)CCNC4=O)c2nc1NC(C)C(F)(F)F` (stereo in doubt) [Example 256, (R)-2-(2-methyl-3-((1,1,1-trifluoropropan-2-yl)amino)quinoxalin-5-yl)-6,7-dihydro-1H-pyrrolo[3,2-c]pyridin-4(5H)-one], the IC50 is 4.32 nM in experiment [1] (setting [3]) and 4.97 nM in experiment [2].
On to `Cc1nc2cccc(-c3cc4c([nH]3)CCNC4=O)c2nc1NC1CCN(C(=O)OC(C)(C)C)CC1` [Example 47, tert-butyl 4-((3-methyl-8-(4-oxo-4,5,6,7-tetrahydro-1H-pyrrolo[3,2-c]pyridin-2-yl)-2-quinoxalinyl)amino)-1-piperidinecarboxylate], for which the IC50 is 34.9 nM in experiment [1] (setting [3]) and 13.2 nM in experiment [2].
Regarding `Cc1nc2cccc(-c3cc4c([nH]3)CCNC4=O)c2nc1N[C@@H]1CCN(C(=O)OC(C)(C)C)C1` [Example 48, tert-butyl (3R)-3-((3-methyl-8-(4-oxo-4,5,6,7-tetrahydro-1H-pyrrolo[3,2-c]pyridin-2-yl)-2-quinoxalinyl)amino)-1-pyrrolidinecarboxylate], the results for the IC50 in experiment [1] (setting [3]) and in experiment [2] were 116 nM and 26.2 nM, respectively.
For `Cc1nc2cccc(-c3cc4c([nH]3)CCNC4=O)c2nc1N[C@H]1CCN(C(=O)OC(C)(C)C)C1` [Example 49, (S)-tert-butyl-3-((3-methyl-8-(4-oxo-4,5,6,7-tetrahydro-1H-pyrrolo[3,2-c]pyridin-2-yl)quinoxalin-2-yl)amino)pyrrolidine-1-carboxylate], in that order: 144 nM and 47.2 nM.
For `CC(=O)N1CCC(Nc2nc3c(-c4cc5c([nH]4)CCNC5=O)cccc3nc2C)CC1` [Example 50, 2-(3-((1-acetyl-4-piperidinyl)amino)-2-methyl-5-quinoxalinyl)-1,5,6,7-tetrahydro-4H-pyrrolo[3,2-c]pyridin-4-one], the IC50 was 24.4 nM in experiment [1] (setting [3]) and 13.7 nM in experiment [2].
Take `Cc1nc2cccc(-c3cc4c([nH]3)CCNC4=O)c2nc1N[C@H]1CCCN(C(=O)OC(C)(C)C)C1` [Example 51, tert-butyl (3S)-3-((3-methyl-8-(4-oxo-4,5,6,7-tetrahydro-1H-pyrrolo[3,2-c]pyridin-2-yl)-2-quinoxalinyl)amino)-1-piperidinecarboxylate]: the IC50 in experiment [1] (setting [3]) is 220 nM; in experiment [2], 191 nM.
For `Cc1nc2cccc(-c3cc4c([nH]3)CCNC4=O)c2nc1N[C@@H]1CCCN(C(=O)OC(C)(C)C)C1` [Example 52, tert-butyl (3R)-3-((3-methyl-8-(4-oxo-4,5,6,7-tetrahydro-1H-pyrrolo[3,2-c]pyridin-2-yl)-2-quinoxalinyl)amino)-1-piperidinecarboxylate], in that order: 403 nM and 149 nM.
As to `Cc1nc2cccc(-c3cc4c([nH]3)CCNC4=O)c2nc1NC1CCNCC1` [Example 53, 2-(2-methyl-3-(4-piperidinylamino)-5-quinoxalinyl)-1,5,6,7-tetrahydro-4H-pyrrolo[3,2-c]pyridin-4-one], the values for the IC50 in experiment [1] (setting [3]) and in experiment [2] were 2.4 nM and 0.6 nM, respectively.
Take `Cc1nc2cccc(-c3cc4c([nH]3)CCNC4=O)c2nc1N[C@H]1CCNC1` [Example 55, 2-(2-methyl-3-((3S)-3-pyrrolidinylamino)-5-quinoxalinyl)-1,5,6,7-tetrahydro-4H-pyrrolo[3,2-c]pyridin-4-one]: the figures for the IC50 in experiment [1] (setting [3]) and in experiment [2] were 3 nM and 0.7 nM, respectively.
For `COC(=O)C(C)(C)Nc1nc2c(-c3cc4c([nH]3)CCNC4=O)cccc2nc1C` [Example 57, Methyl 2-methyl-N-(3-methyl-8-(4-oxo-4,5,6,7-tetrahydro-1H-pyrrolo[3,2-c]pyridin-2-yl)-2-quinoxalinyl)alaninate], in that order: 54.3 nM and 24.2 nM.
For `Cc1nc2cccc(-c3cc4c([nH]3)CCNC4=O)c2nc1NC(C)(C)C(=O)O` [Example 60, 2-methyl-N-(3-methyl-8-(4-oxo-4,5,6,7-tetrahydro-1H-pyrrolo[3,2-c]pyridin-2-yl)-2-quinoxalinyl)alanine], the figures for the IC50 in experiment [1] (setting [3]) and in experiment [2] were 191 nM and 300 nM, respectively.
For `Cc1nc2cccc(-c3cc4c([nH]3)CCNC4=O)c2nc1N[C@@H]1CCNC1` [Example 61, 2-(2-methyl-3-((3R)-3-pyrrolidinylamino)-5-quinoxalinyl)-1,5,6,7-tetrahydro-4H-pyrrolo[3,2-c]pyridin-4-one], the IC50 in experiment [1] (setting [3]) came out at 26.4 nM; in experiment [2] it was 6.1 nM.
For `CC(=O)N1CC[C@@H](Nc2nc3c(-c4cc5c([nH]4)CCNC5=O)cccc3nc2C)C1` [Example 64, 2-(3-(((3R)-1-acetyl-3-pyrrolidinyl)amino)-2-methyl-5-quinoxalinyl)-1,5,6,7-tetrahydro-4H-pyrrolo[3,2-c]pyridin-4-one], in that order: 34.5 nM and 25.9 nM.
As to `CC(=O)N1CC[C@H](Nc2nc3c(-c4cc5c([nH]4)CCNC5=O)cccc3nc2C)C1` [Example 65, (S)-2-(3-((1-acetylpyrrolidin-3-yl)amino)-2-methylquinoxalin-5-yl)-6,7-dihydro-1H-pyrrolo[3,2-c]pyridin-4(5H)-one], the IC50 in experiment [1] was 72.8 nM; in experiment [2] it was 57.8 nM.
Regarding `Cc1nc2cccc(-c3cc4c([nH]3)CCNC4=O)c2nc1NC1CN(C(=O)OC(C)(C)C)C1` [Example 149, tert-butyl 3-((3-methyl-8-(4-oxo-4,5,6,7-tetrahydro-1H-pyrrolo[3,2-c]pyridin-2-yl)quinoxalin-2-yl)amino)azetidine-1-carboxylate], the IC50 in experiment [1] (setting [3]) turned out to be 33 nM; in experiment [2], 20 nM.
On to `Cc1nc2cccc(-c3cc4c([nH]3)CCNC4=O)c2nc1NC1CNC1` [Example 150, 2-(3-(azetidin-3-ylamino)-2-methylquinoxalin-5-yl)-6,7-dihydro-1H-pyrrolo[3,2-c]pyridin-4(5H)-one], for which the IC50 in experiment [1] (setting [3]) was 5.9 nM; in experiment [2], 2 nM.
In the case of `Cc1nc2cccc(-c3cc4c([nH]3)CCNC4=O)c2nc1OC1CCC1` [Example 151, 2-(3-cyclobutoxy-2-methylquinoxalin-5-yl)-6,7-dihydro-1H-pyrrolo[3,2-c]pyridin-4(5H)-one], the IC50 in experiment [1] (setting [3]) was 12.3 nM; in experiment [2], 18.2 nM.
For `Cc1nc2cccc(-c3cc4c([nH]3)CCNC4=O)c2nc1OCC(C)(C)C` [Example 152, 2-(2-methyl-3-(neopentyloxy)quinoxalin-5-yl)-6,7-dihydro-1H-pyrrolo[3,2-c]pyridin-4(5H)-one], in that order: 44.7 nM and 54.2 nM.
With `CCCCNc1nc2c(-c3cc4c([nH]3)CCNC4=O)cccc2nc1C` [Example 159, 2-(3-(butylamino)-2-methylquinoxalin-5-yl)-6,7-dihydro-1H-pyrrolo[3,2-c]pyridin-4(5H)-one], the figures for the IC50 in experiment [1] (setting [3]) and in experiment [2] were 1.7 nM and 3.1 nM, respectively.
